Drawing on patent US11453683B1, “KRas G12D inhibitors” (Mirati Therapeutics, Inc., priority 2019, dated 2022), this text covers IC50 for 23 compounds.

Structures are written as SMILES.

The test system of this test is KRas G12D-mediated phosphorylation of ERK. As to the kind of experiment: Inhibition of KRas G12D-mediated phosphorylation of ERK in AGS cells. Conditions: Homo sapiens; AGS cells expressing G12D, 3 hours, phospho-ERK normalized to GAPDH. Format: cell-based. The method in brief:
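Fixed, methanol-permeabilized; phospho-ERK (Thr202/Tyr204) by in-cell immunofluorescence normalized to GAPDH. Percent of DMSO control, IC50 by 4-parameter fit.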
The compound `O=C1OCCN1C[C@H]1CC[C@@]2(COc3nc(N4CC5CCC(C4)N5)c4cnc(-c5cccc6cccc(Cl)c56)c(F)c4n3)CCCN12` [Example 442, 3-(((3R,7aR)-7a-(((4-(3,8-diazabicyclo[3.2.1]octan-3-yl)-7-(8-chloronaphthalen-1-yl)-8-fluoropyrido[4,3-d]pyrimidin-2-yl)oxy)methyl)hexahydro-1H-pyrrolizin-3-yl)methyl)oxazolidin-2-one] came in with an IC50 of 1.16 µM.

For the compound `Fc1cccc(-c2ncc3c(N4C[C@H]5CC[C@@H](C4)N5)nc(OCC45CCCN4CCC5)nc3c2F)c1C(F)(F)F` [Example 292, 4-((1R,5S)-3,8-diazabicyclo[3.2.1]octan-3-yl)-8-fluoro-7-(3-fluoro-2-(trifluoromethyl)phenyl)-2-((tetrahydro-1H-pyrrolizin-7a(5H)-yl)methoxy)pyrido[4,3-d]pyrimidine], the IC50 turned out to be 1.7 µM.

Take `Cc1cc2[nH]ccc2c(-c2ncc3c(N4C[C@H]5CC[C@@H](C4)N5)nc(OCC45CCCN4CCC5)nc3c2F)c1C` [Example 250, 4-((1R,5S)-3,8-diazabicyclo[3.2.1]octan-3-yl)-7-(5,6-dimethyl-1H-indol-4-yl)-8-fluoro-2-((hexahydro-1H-pyrrolizin-7a-yl)methoxy)pyrido[4,3-d]pyrimidine]: the half-inhibitory concentration (IC50) came to 7.48 µM.

In turn, `CN1CC[C@@H](COc2nc(N3C[C@H]4CC[C@@H](C3)N4)c3cnc(-c4cccc5cccc(Cl)c45)c(F)c3n2)C1` [Example 356, 4-((1R,5S)-3,8-diazabicyclo[3.2.1]octan-3-yl)-7-(8-chloronaphthalen-1-yl)-8-fluoro-2-(((R)-1-methylpyrrolidin-3-yl)methoxy)pyrido[4,3-d]pyrimidine] came in with a half-maximal inhibitory concentration (IC50) of 11.9 µM.

Regarding `Oc1cc(-c2ncc3c(N4C[C@H]5CC[C@@H](C4)N5)nc(OCCc4ccccn4)nc3c2F)c2ccccc2c1` [Example 4, 4-(4-((1R,5S)-3,8-diazabicyclo[3.2.1]octan-3-yl)-8-fluoro-2-(2-(pyridin-2-yl)ethoxy)pyrido[4,3-d]pyrimidin-7-yl)naphthalen-2-ol], the IC50 stood at 8.53 µM.

For `Cc1cc2[nH]ncc2c(-c2ncc3c(N4C[C@H]5CC[C@@H](C4)N5)nc(OCC45CCCN4CCC5)nc3c2F)c1C` [Example 249, 4-((1R,5S)-3,8-diazabicyclo[3.2.1]octan-3-yl)-7-(5,6-dimethyl-1H-indazol-4-yl)-8-fluoro-2-((hexahydro-1H-pyrrolizin-7a-yl)methoxy)pyrido[4,3-d]pyrimidine], the IC50 was found to be 7.71 µM.

Regarding `Oc1cc(-c2ncc3c(N4C[C@H]5CC[C@@H](C4)N5)nc(OCC45CCCN4CCC5)nc3c2F)c2c(F)cccc2c1` [Example 367, 4-(4-((1R,5S)-3,8-diazabicyclo[3.2.1]octan-3-yl)-8-fluoro-2-((tetrahydro-1H-pyrrolizin-7a(5H)-yl)methoxy)pyrido[4,3-d]pyrimidin-7-yl)-5-fluoronaphthalen-2-ol tris(2,2,2-trifluoroacetate)], the IC50 came out at 0.112 µM.

In turn, `CO[C@H]1CN2CCC[C@]2(COc2nc(N3CC4CCC(C3)N4)c3cnc(-c4cc(O)cc5cccc(F)c45)c(F)c3n2)C1` (stereo in doubt) [Example 406, 4-(4-((1R,5S)-3,8-diazabicyclo[3.2.1]octan-3-yl)-8-fluoro-2-((2-methoxytetrahydro-1H-pyrrolizin-7a(5H)-yl)methoxy)pyrido[4,3-d]pyrimidin-7-yl)-5-fluoronaphthalen-2-ol] came in with an IC50 of 0.44 µM.

The compound `Fc1c(-c2cccc3cccc(Cl)c23)ncc2c(N3CC4CC(F)C(C3)N4)nc(OC[C@@]34CCCN3C[C@H](F)C4)nc12` (some centres unmarked) [Example 396, 7-(8-chloronaphthalen-1-yl)-8-fluoro-4-(6-fluoro-3,8-diazabicyclo[3.2.1]octan-3-yl)-2-((2-fluorotetrahydro-1H-pyrrolizin-7a(5H)-yl)methoxy)pyrido[4,3-d]pyrimidine] gave an IC50 of 8.17 µM.

As for `COc1nc(N2C[C@H]3CC[C@@H](C2)N3)c2cnc(-c3cc(O)cc4cccc(Cl)c34)c(F)c2n1` [Example 360, 4-(4-((1R,5S)-3,8-diazabicyclo[3.2.1]octan-3-yl)-8-fluoro-2-methoxypyrido[4,3-d]pyrimidin-7-yl)-5-chloronaphthalen-2-ol], half-maximal inhibition (IC50) was put at 8.35 µM.

`Oc1cc(-c2ncc3c(N4C[C@H]5CC[C@@H](C4)N5)nc(OCCC(F)(F)F)nc3c2F)c2ccccc2c1` [Example 81, 4-(4-((1R,5S)-3,8-diazabicyclo[3.2.1]octan-3-yl)-8-fluoro-2-(3,3,3-trifluoropropoxy)pyrido[4,3-d]pyrimidin-7-yl)naphthalen-2-ol]: the 50% inhibitory concentration (IC50) turned out to be 8.29 µM.

On to `Fc1c(-c2c(OC(F)(F)F)ccc3[nH]ncc23)ncc2c(N3C[C@H]4CC[C@@H](C3)N4)nc(OCC34CCCN3CCC4)nc12` [Example 258, 4-((1R,5S)-3,8-diazabicyclo[3.2.1]octan-3-yl)-8-fluoro-2-((hexahydro-1H-pyrrolizin-7a-yl)methoxy)-7-(5-(trifluoromethoxy)-1H-indazol-4-yl)pyrido[4,3-d]pyrimidine], for which the IC50 worked out at 1.46 µM.

Regarding `Cn1ccnc1CCOc1nc(N2C[C@H]3CC[C@@H](C2)N3)c2cnc(-c3cc(O)cc4ccccc34)c(F)c2n1` [Example 3, 4-(4-((1R,5S)-3,8-diazabicyclo[3.2.1]octan-3-yl)-8-fluoro-2-(2-(1-methyl-1H-imidazol-2-yl)ethoxy)pyrido[4,3-d]pyrimidin-7-yl)naphthalen-2-ol], the IC50 was found to be 10.3 µM.

The compound `O=C(O[C@@H]1CN2CCC[C@]2(COc2nc(N3C[C@H]4CC[C@@H](C3)N4)c3cnc(-c4cccc5cccc(Cl)c45)c(F)c3n2)C1)N1CCOCC1` [Example 436, (2S,7aR)-7a-(((4-((1R,5S)-3,8-diazabicyclo[3.2.1]octan-3-yl)-7-(8-chloronaphthalen-1-yl)-8-fluoropyrido[4,3-d]pyrimidin-2-yl)oxy)methyl)hexahydro-1H-pyrrolizin-2-yl morpholine-4-carboxylate] showed an IC50 of 3.99 µM.

Turning to `CCc1c(Cl)cccc1-c1ncc2c(N3C[C@H]4CC[C@@H](C3)N4)nc(OCC34CCCN3CCC4)nc2c1F` [Example 312, 4-((1R,5S)-3,8-diazabicyclo[3.2.1]octan-3-yl)-7-(3-chloro-2-ethylphenyl)-8-fluoro-2-((hexahydro-1H-pyrrolizin-7a-yl)methoxy)pyrido[4,3-d]pyrimidine], inhibition was half-maximal at 1.88 µM (IC50).

`Fc1c(-c2ccccc2C2CC2)ncc2c(N3C[C@H]4CC[C@@H](C3)N4)nc(OCC34CCCN3CCC4)nc12` [Example 297, 4-((1R,5S)-3,8-diazabicyclo[3.2.1]octan-3-yl)-7-(2-cyclopropylphenyl)-8-fluoro-2-((hexahydro-1H-pyrrolizin-7a-yl)methoxy)pyrido[4,3-d]pyrimidine] had an IC50 of 6.56 µM.

As to `CO[C@@H]1C[C@@H](COc2nc(N3C[C@H]4CC[C@@H](C3)N4)c3cnc(-c4cc(O)cc5ccccc45)c(F)c3n2)N(C)C1` [Example 42, 4-(4-((1R,5S)-3,8-diazabicyclo[3.2.1]octan-3-yl)-8-fluoro-2-(((2S,4R)-4-methoxy-1-methylpyrrolidin-2-yl)methoxy)pyrido[4,3-d]pyrimidin-7-yl)naphthalen-2-ol], half-maximal inhibition (IC50) required 0.638 µM.

Compound `Oc1ccc(C(F)(F)F)c(-c2ncc3c(N4C[C@H]5CC[C@@H](C4)N5)nc(OCC45CCCN4CCC5)nc3c2F)c1` [Example 373, 3-(4-((1R,5S)-3,8-diazabicyclo[3.2.1]octan-3-yl)-8-fluoro-2-((tetrahydro-1H-pyrrolizin-7a(5H)-yl)methoxy)pyrido[4,3-d]pyrimidin-7-yl)-4-(trifluoromethyl)phenol] showed an IC50 above 16.7 µM.

For the compound `Cc1c(Cl)cc2[nH]ncc2c1-c1ncc2c(N3CC4CCC(C3)N4)nc(OC[C@@]34CCCN3C[C@H](F)C4)nc2c1F` (stereo in doubt) [Example 401, 4-((1R,5S)-3,8-diazabicyclo[3.2.1]octan-3-yl)-7-(6-chloro-5-methyl-1H-indazol-4-yl)-8-fluoro-2-((2-fluorotetrahydro-1H-pyrrolizin-7a(5H)-yl)methoxy)pyrido[4,3-d]pyrimidine], it took 0.604 µM to reach half-maximal inhibition (IC50).

`CN(C)Cc1ccc(COCCNC(=O)O[C@@H]2C[C@@H](COc3nc(N4C[C@H]5CC[C@@H](C4)N5)c4cnc(-c5cccc6cccc(Cl)c56)c(F)c4n3)N(C)C2)cc1` [Example 308, (3R,5S)-5-(((4-((1R,5S)-3,8-diazabicyclo[3.2.1]octan-3-yl)-7-(8-chloronaphthalen-1-yl)-8-fluoropyrido[4,3-d]pyrimidin-2-yl)oxy)methyl)-1-methylpyrrolidin-3-yl (2-((4-((dimethylamino)methyl)benzyl)oxy)ethyl)carbamate]: the IC50 was above 5.56 µM.

In turn, `Fc1c(-c2cccc3cccc(C4CC4)c23)ncc2c(N3C[C@H]4CC[C@@H](C3)N4)nc(OCC34CCCN3CCC4)nc12` [Example 335, 4-((1R,5S)-3,8-diazabicyclo[3.2.1]octan-3-yl)-7-(8-cyclopropylnaphthalen-1-yl)-8-fluoro-2-((tetrahydro-1H-pyrrolizin-7a(5H)-yl)methoxy)pyrido[4,3-d]pyrimidine] returned an IC50 of 10.4 µM.

For the compound `O[C@@H]1C[C@@H]2CN(c3nc(OCCn4ccnc4CF)nc4c(F)c(-c5cccc6cccc(Cl)c56)ncc34)C[C@H]1N2` [Example 168, (1R,5R,6R)-3-(7-(8-chloronaphthalen-1-yl)-8-fluoro-2-(2-(2-(fluoromethyl)-1H-imidazol-1-yl)ethoxy)pyrido[4,3-d]pyrimidin-4-yl)-3,8-diazabicyclo[3.2.1]octan-6-ol], the IC50 was above 16.7 µM.

In the case of `C#Cc1cccc2cncc(-c3ncc4c(N5C[C@H]6CC[C@@H](C5)N6)nc(OC[C@]56CCCN5C[C@@H](F)C6)nc4c3F)c12` [Example 204, 4-((1R,5S)-3,8-diazabicyclo[3.2.1]octan-3-yl)-7-(5-ethynylisoquinolin-4-yl)-8-fluoro-2-(((2S,7aR)-2-fluorotetrahydro-1H-pyrrolizin-7a(5H)-yl)methoxy)pyrido[4,3-d]pyrimidine], the IC50 stood at 0.307 µM.
